The values that follow come from article PMC5447756, “Identification of Epigallocatechin-3- Gallate as an Inhibitor of Phosphoglycerate Mutase 1” (Frontiers in Pharmacology, 2017).

One data set relates to human xenograft tumors. Also noted: method as in Hitosugi et al., 2012. Particulars: mice models carrying human xenograft tumors; ref Hitosugi et al., 2012; cited from earlier work. (In general: Xenograft models place foreign cells or tissue in a host animal.)
In a further data set the test system is T1, PGAM1 R10K mutant.
T1 construct: His; made in house; host or cells: E. coli BL21
Nature of the data set: Inhibition of PGAM1 R10K mutant. In kind it is biochemical, human. Particulars: compared to the wild-type PGAM1. As to the method: (§1) BL21 competent cells were transformed by His-tagged pETDuet-1-PGAM1 (wildtype or mutants) or His-tagged pETDuet-1-PHGDH constructs. Cells were collected, resuspended in buffer A (20 mM Tris, 200 mM NaCl, 20 mM imidazole, pH 8.0) and sonicated on ice until complete lysis. His-tagged PGAM1, PGAM1 mutants or PHGDH recombinant proteins in supernatant were purified using Ni-NTA beads (QIAGEN), washed with buffer A, and eluted with buffer B (20 mM Tris, 200 mM NaCl, 250 mM imidazole, pH 8.0). All obtained proteins were stored at -80°C.
(§2) Recombinant PGAM1 enzymatic activity was measured by a multiple enzymes coupled assay. In brief, assay was conducted in 10 μL buffer (50 mM HEPES, PH 7.5, 10 mM MgCl2) containing 5 μL 1 mg/ml recombinant PGAM1 enzyme, 2.5 μL test compound, 2.5 μL 1 mM ADP, 1 mM 3-PG, 0.5 units/ml enolase (Sigma–Aldrich) and 0.5 units/mL recombinant pyruvate kinase M1 (Sigma–Aldrich). The production of ATP was measured by Kinase-Glo® Max Luminescent Kinase Assay (Promega).
(§3) H186R was a well-validated catalytically dead mutant of PGAM1 ([Zhang et al., 2016]; [Qu et al., 2017]), which was used as a control (Figure 2B).

Data set [1] relates to NCI-H1299 cells. Nature of the data set: Intracellular 2-PG measurement. In kind it is cell-based, human. Particulars: NCI-H1299, 24 h, free compound. On the procedure: A 2-Phosphoglycerate Colorimetric/Fluorometric Assay kit (BioVision) was used to measure cellular 2-PG level. Cells were collected after exposure to compounds for 24 h, washed with PBS, and lysed with ice-cold 2-PG assay buffer. […] The samples were measured by using EnVision® at Ex 535 Em 587 nm.

Another data set relates to T2, PGAM1 R116K mutant.
T2 construct: His; made in house; host or cells: E. coli BL21
Nature of the data set: Inhibition of PGAM1 R116K mutant. Particulars: compared to the wild-type PGAM1. In kind it is biochemical, human. On the procedure: as §1, §2, §3

In the next data set the test system is T3, PGAM1 R191K mutant.
T3 construct: His; made in house; host or cells: E. coli BL21
Description: Inhibition of PGAM1 R191K mutant. In kind it is biochemical, human. To be noted: compared to the wild-type PGAM1. On the procedure:
as §1, §2, §3

The target in data set [2] is T4, PGAM1 (Homo sapiens, UniProt P18669).
T4 construct: His; made in house; host or cells: E. coli BL21
T4 sequence (P18669 whole entry): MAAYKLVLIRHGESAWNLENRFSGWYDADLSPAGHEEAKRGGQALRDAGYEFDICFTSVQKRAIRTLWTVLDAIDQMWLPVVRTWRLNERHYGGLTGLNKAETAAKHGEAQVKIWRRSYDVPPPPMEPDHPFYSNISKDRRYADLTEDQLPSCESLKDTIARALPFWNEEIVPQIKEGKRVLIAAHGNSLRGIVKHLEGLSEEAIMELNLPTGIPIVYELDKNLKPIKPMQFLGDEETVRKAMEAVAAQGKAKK
Description: Substrate 3-PG competition, Lineweaver-Burk plot analysis. In kind it is biochemical.

A further data set concerns hexokinase 2 (HK2). Set-up: method as in Gao et al., 2015. To be noted: human tongue carcinoma; ref Gao et al., 2015; cited from earlier work.
Data set [3] deals with T4, PGAM1. Description: Surface plasmon resonance binding to PGAM1. To be noted: SPR, 25°C, 1:1 Langmuir binding model; read-out: dissociation constant (Kd-value). As to the method:
Surface plasmon resonance (SPR) assay was carried out with a ProteOn XPR36 instrument (Bio-Rad). PGAM1 was coupled to the surface of a GLH sensor chip according to the manufacturer’s instructions. […] Resonance units (RU) changes represent the binding condition. The dissociation constant (Kd) was calculated using the ProteOn Manager 3.1 software program by fitting to a 1:1 Langmuir binding model.
For orientation: SPR reads the build-up and loss of mass on a sensor chip optically.

For data set [4], the target named is T4, PGAM1. Nature of the data set: PGAM1 coupled enzymatic assay (PKM1/enolase, Kinase-Glo). To be noted: recombinant PGAM1, coupled enzyme assay; read-out: IC50, inhibition of PGAM1. In kind it is biochemical. On the technique in general: In Kinase-Glo more light means more ATP remaining.
Description: To identify new PGAM1 inhibitors, we utilized a coupled PGAM1 and pyruvate kinase isozymes M1 (PKM1)/enolase biochemical assay followed by a counter screen to exclude compounds with activity toward PKM1 or enolase. […] Using these biochemical assays, we screened a chemical library composed of 800 purified compounds derived from natural products.
In data set [5] the test system is T5, mutant isocitrate dehydrogenase 1 (IDH1 R132H).
T5 construct: purchased Cayman Chemical
Description: IDH enzymatic assay. The data set is classed as biochemical. Particulars: at a concentration up to 100 μM. As to the method: Assays were conducted in 10 μL buffer [150 mM NaCl, 20 mM Tris pH7.5, 10 mM MgCl2, 0.05% (w/v) bovine serum albumin] containing 2.5 μL of test compound, 5 μL enzyme solution (10 ng/μL mutant IDH, Cayman Chemical) and 2.5 μL substrate solution (1 mM α-KG, 4 μM NADPH) added into a 384-well plate followed by incubation at room temperature for 60 min. After incubation, NADPH remaining amount was measured by adding 5 μL buffer containing 5 μM resazurin and 0.01 unit diaphorase and incubated at room temperature for 10 min. The plate was read using EnVision (Perkin Elmer) at Ex 540 Em 590 nm.

Data set [6] relates to NCI-H1299 cells. Description: Cell proliferation assay, NCI-H1299. The data set is classed as cell-based, human. On the procedure:
Cells were seeded into a 6-well plate. […] The cells were harvested after incubation for 72 h and the proliferation inhibition rate was calculated by cell number counting (Beckman).

A further data set relates to Caco-2 monolayer. Description: Caco-2 monolayer permeability. Particulars: result in words. In kind it is in vitro ADME. On the procedure:
The solubility of compounds was measured by Nephelometry using the NEPHELOstar plus apparatus (BMG Lab Technologies). Caco-2 monolayer was cultivated on permeable support. In details, after 21-day culture, the integrity of the cell monolayer of every well was verified by measuring the transepithelial electrical resistance (TEER). The diluted solution was added to corresponding well and the plate was incubated at 37°C for 1.5 h. 100 μL samples were collected from both apical and basolateral sides at the initial and end time points and the sample concentrations were measured for the evaluation of mass balance.

Data set [7] has as its system T6, phosphoglycerate dehydrogenase (PHGDH).
T6 construct: His; made in house; host or cells: E. coli BL21
Nature of the data set: PHGDH enzymatic assay. The data set is classed as biochemical. Particulars: at a concentration up to 100 μM. As to the method:
Assays were conducted in 10 μL buffer (200 mM Tris-HCl pH8.1, 400 mM KCl, 2 mM GSH, and 10 mM EDTA) containing recombinant PHGDH, 0.6 mM NAD, 1 mM 3-PG. The NADH product can be measured by diaphorase/rezasurin system.

In the case of `O=C1c2ccccc2C(=O)c2c1cc(S(=O)(=O)Nc1ccc(C(F)(F)F)cc1)c(O)c2O` [PGMI-004A, reference compound], the “anticancer properties in xenograft mice” value in the data set on human xenograft tumors is listed as “exhibited evident anticancer properties”. Further, in the data set on PGAM1 R10K mutant, the “inhibitory activity toward R10K mutant” value was “only slightly affect the activity”. The “concentration giving apparent inhibition of intracellular 2-PG level” value in the data set on NCI-H1299 cells [1] is 20 µM. For the same compound, the “inhibitory activity toward R116K mutant” value with PGAM1 R116K mutant is given as “only slightly affect the activity”. Further, the “inhibitory activity toward R191K mutant” value with PGAM1 R191K mutant is “only slightly affect the activity”.
A word on the Kd: it is the concentration at which binding is half-saturated. One may read the IC50 as the concentration that inhibits the measured activity by half. Turning to (-)-Epigallocatechin-3-gallate [EGCG], the “pattern of inhibition with substrate 3-PG” value on PGAM1 [2] is “non-competitive”. The “expression of hexokinase 2 (HK2)” value in the data set on hexokinase 2 (HK2) is recorded as “inhibits the expression”. Further, at PGAM1 [3], the Kd came to 780 nM. In addition, on PGAM1 [4], the IC50 was determined as 490 ± 170 nM. Further, the “inhibitory activity toward R10K mutant” value with PGAM1 R10K mutant is “lost its inhibitory activity”. In data set [5], the “inhibition of mutant IDH1” value was “did not inhibit”. Besides, the cell growth entry in the data set with NCI-H1299 cells [6] (NCI-H1299, 72 h, cell counting) is given as “dose-dependently inhibited cell growth”. Besides, in the data set on NCI-H1299 cells [6] (PGAM1 stable knockdown NCI-H1299 (shPGAM1) vs scramble, 72 h), the “effect of stable knockdown of PGAM1 on growth inhibition” value is “partially rescued”. Besides, in the data set with Caco-2 monolayer, the membrane permeability result was “extremely low membrane permeability”. Further, the “inhibition of PHGDH” value in data set [7] is recorded as “did not inhibit”. The “concentration giving apparent inhibition of intracellular 2-PG level” value with NCI-H1299 cells [1] was determined as 80 µM. For the same compound, the “inhibitory activity toward R116K mutant” value in the data set with PGAM1 R116K mutant is reported as “lost its inhibitory activity”. Further, the “inhibitory activity toward R191K mutant” value in the data set with PGAM1 R191K mutant is “lost its inhibitory activity”.
